Data: patent US7045515B2, “β-lactam compounds process for reproducing the same and serum cholesterol-lowering agents containing the same” (Kotobuki Pharmaceutical Co., Ltd., priority 2001, dated 2006)

Row | SMILES | melting point [°C]
1 | O=C1[C@H](CCCc2ccccc2)[C@@H](c2ccc(CC3O[C@H](CO)[C@@H](O)[C@H](O)[C@H]3O)cc2)N1c1ccc(F)cc1 (relative stereo) [Compound 11, (4S*,3R*)-4-(4-{[(5S,2R,3R,4R,6R)-3,4,5-Trihydroxy-6-(hydroxymethyl)perhydro-2H-pyran-2-yl]methyl}phenyl)-1-(4-fluorophenyl)-3-[3-(phenyl)propyl]azetidine-2-one] | 74 to 75
2 | O=C1[C@H](CCOc2ccc(F)cc2)[C@@H](c2ccc(CC3O[C@H](CO)[C@@H](O)[C@H](O)[C@H]3O)cc2)N1c1ccc(F)cc1 (relative stereo) [Compound 12, (4S*,3R*)-4-(4-{[(5S,2R,3R,4R,6R)-3,4,5-Trihydroxy-6-(hydroxymethyl)perhydro-2H-pyran-2-yl]methyl}phenyl)-1-(4-fluorophenyl)-3-[2-(4-fluorophenoxy)ethyl]azetidine-2-one] | 65 to 67
3 | O=C1[C@H](CCCc2ccc(F)cc2)[C@@H](c2ccc(OCC3O[C@H](CO)[C@@H](O)[C@H](O)[C@H]3O)cc2)N1c1ccc(F)cc1 (relative stereo) [Compound 14, (4S*,3R*)-4-(4-{[(4S,5S,2R,3R,6R)-3,4,5-Trihydroxy-6-(hydroxymethyl)perhydro-2H-pyran-2-yl]methoxy}phenyl)-1-(4-fluorophenyl)-3-[3-(4-fluorophenyl)propyl]azetidine-2-one] | 61 to 62
4 | O=C1[C@H](CCCc2ccc(F)cc2)[C@@H](c2ccc(OCC3O[C@H](CO)[C@@H](O)[C@H](O)[C@H]3O)cc2)N1Cc1ccccc1 (relative stereo) [Compound 16, (4S*,3R*)-4-(4-{[(4S,5S,2R,3R,6R)-3,4,5-Trihydroxy-6-(hydroxymethyl)perhydro-2H-pyran-2-yl]methoxy}phenyl)-1-phenylmethyl-3-[3-(4-fluorophenyl)propyl]azetidine-2-one] | 73 to 75
5 | CCOC(=O)C(C)(C)Oc1ccc(N2C(=O)[C@H](CCCc3ccc(F)cc3)[C@H]2c2ccc(C[C@@H]3O[C@H](CO)[C@@H](O)[C@H](O)[C@H]3O)cc2)cc1 (relative stereo) [Compound 18, 2-{4-[(4S*,3R*)-4-{[(5S,2R,3R,4R,6R)-3,4,5-Trihydroxy-6-(hydroxymethyl)perhydro-2H-pyran-2-yl]methyl}phenyl-3-[3-(4-fluorophenyl)propyl]-2-oxoazetidinyl]phenoxy}-2-methylpropionic acid ethyl ester] | 73 to 74
6 | CC(C)(Oc1ccc(N2C(=O)[C@H](CCCc3ccc(F)cc3)[C@H]2c2ccc(C[C@@H]3O[C@H](CO)[C@@H](O)[C@H](O)[C@H]3O)cc2)cc1)C(=O)O (relative stereo) [Compound 19, 2-{4-[(4S*,3R*)-4-{[(5S,2R,3R,4R,6R)-3,4,5-Trihydroxy-6-(hydroxymethyl)perhydro-2H-pyran-2-yl]methyl}phenyl-3-[3-(4-fluorophenyl)propyl]-2-oxoazetidinyl]phenoxy}-2-methylpropionic acid] | 170 to 172
7 | CCOC(=O)C(C)(C)Oc1ccc(N2C(=O)[C@H](CCCc3ccc(C)cc3)[C@H]2c2ccc(C[C@@H]3O[C@H](CO)[C@@H](O)[C@H](O)[C@H]3O)cc2)cc1 (relative stereo) [Compound 20, 2-{4-[(4S*,3R*)-4-{[(5S,2R,3R,4R,6R)-3,4,5-Trihydroxy-6-(hydroxymethyl)perhydro-2H-pyran-2-yl]methyl}phenyl-3-[3-(4-methylphenyl)propyl]-2-oxoazetidinyl]phenoxy}-2-methylpropionic acid ethyl ester] | 76 to 78
8 | Cc1ccc(CCC[C@H]2C(=O)N(c3ccc(OC(C)(C)C(=O)O)cc3)[C@@H]2c2ccc(C[C@@H]3O[C@H](CO)[C@@H](O)[C@H](O)[C@H]3O)cc2)cc1 (relative stereo) [Compound 21, 2-{4-[(4S*,3R*)-4-{[(5S,2R,3R,4R,6R)-3,4,5-Trihydroxy-6-(hydroxymethyl)perhydro-2H-pyran-2-yl]methyl}phenyl-3-[3-(4-methylphenyl)propyl]-2-oxoazetidinyl]phenoxy}-2-methylpropionic acid] | 161 to 162
9 | O=C1[C@H](CCCc2ccc(F)cc2)[C@@H](c2ccc(CC3O[C@H](CO)[C@@H](O)[C@H](O)[C@H]3O)cc2)N1c1ccc(F)cc1 (stereo in doubt) [Compound 25, (4S,3R)-4-(4-{[(5S,2R,3R,4R,6R)-3,4,5-Trihydroxy-6-(hydroxymethyl)perhydro-2H-pyran-2-yl)methyl}phenyl)-1-(4-fluorophenyl)-3-[3-(4-fluorophenyl)propyl]azetidine-2-one] | 67 to 69
10 | O=C1[C@H](CC[C@H](O)c2ccc(F)cc2)[C@@H](c2ccc(C[C@@H]3O[C@H](CO)[C@@H](O)[C@H](O)[C@H]3O)cc2)N1c1ccc(F)cc1 [Compound 22, (4S,3R)-3-[(3S)-3-(4-Fluorophenyl)-3-hydroxypropyl]-4-(4-{[(2S,5S,3R,4R,6R)-3,4,5-trihydroxy-6-(hydroxymethyl)perhydro-2H-pyran-2-yl]methyl}phenyl)-1-(4-fluorophenyl)azetidine-2-one] | 115 to 117
11 | O=C(CC[C@H]1C(=O)N(c2ccc(F)cc2)[C@@H]1c1ccc(C[C@@H]2O[C@H](CO)[C@@H](O)[C@H](O)[C@H]2O)cc1)c1ccc(F)cc1 [Compound 26, (4S,3R)-4-(4-{[(2S,5S,3R,4R,6R)-3,4,5-Trihydroxy-6-(hydroxymethyl)perhydro-2H-pyran-2-yl]methyl}phenyl)-1-(4-fluorophenyl)-3-[3-(4-fluorophenyl)-3-oxopropyl]azetidine-2-one] | 78 to 80
12 | O=C(CC[C@H]1C(=O)N(c2ccccc2)[C@@H]1c1ccc(C[C@@H]2O[C@H](CO)[C@@H](O)[C@H](O)[C@H]2O)cc1)c1ccc(F)cc1 [Compound 27, (4S,3R)-4-(4-{[(2S,5S,3R,4R,6R)-3,4,5-Trihydroxy-6-(hydroxymethyl)perhydro-2H-pyran-2-yl]methyl}phenyl)-1-phenyl-3-[3-(4-fluorophenyl)-3-oxopropyl]azetidine-2-one] | 104 to 106
13 | O=C(O)c1ccc(N2C(=O)[C@H](CC[C@H](O)c3ccc(F)cc3)[C@H]2c2ccc(C[C@@H]3O[C@H](CO)[C@@H](O)[C@H](O)[C@H]3O)cc2)cc1 [Compound 29, 4-[(4S,3R)-3-[(3S)-3-(4-Fluorophenyl)-3-hydroxypropyl]-4-(4-{[(2S,5S,3R,4R,6R)-3,4,5-trihydroxy-6-(hydroxymethyl)perhydro-2H-pyran-2-yl]methyl}phenyl)-2-oxoazetidinyl]benzoic acid] | 148 to 150

Other lines, results leading:

Row | melting point [°C] | SMILES
14 | 78 to 80 | O=C1[C@H](CCCc2ccc(F)cc2)[C@H](c2ccc(CC3O[C@H](CO)[C@@H](O)[C@H](O)[C@H]3O)cc2)N1c1ccc(F)cc1 (relative stereo) [Compound 40, (4R*,3R*)-4-(4-{[(5S,2R,3R,4R,6R)-3,4,5-Trihydroxy-6-(hydroxymethyl)perhydro-2H-pyran-2-yl]methyl}phenyl)-3-[3-(4-fluorophenyl)propyl]-1-(4-fluorophenyl)azetidine-2-one]
15 | 102 to 104 | O=C(O)c1ccc(N2C(=O)[C@H](CCC(=O)c3ccc(F)cc3)[C@H]2c2ccc(C[C@@H]3O[C@H](CO)[C@@H](O)[C@H](O)[C@H]3O)cc2)cc1 [Compound 30, 4-[(4S,3R)-4-(4-{[(2S,5S,3R,4R,6R)-3,4,5-Trihydroxy-6-(hydroxymethyl)perhydro-2H-pyran-2-yl]methyl}phenyl)-3-[3-(4-fluorophenyl)-3-oxopropyl]-2-oxoazetidinyl]benzoic acid]
16 | 97 to 99 | O=C(O)c1ccc(N2C(=O)[C@H](CCCc3ccc(F)cc3)[C@H]2c2ccc(C[C@@H]3O[C@H](CO)[C@@H](O)[C@H](O)[C@H]3O)cc2)cc1 [Compound 31, 4-[(4S,3R)-4-(4-{[(2S,5S,3R,4R,6R)-3,4,5-Trihydroxy-6-(hydroxymethyl)perhydro-2H-pyran-2-yl]methyl}phenyl)-3-[3-(4-fluorophenyl)propyl]-2-oxoazetidinyl]benzoic acid]
17 | 83 to 85 | O=C(CC[C@H]1C(=O)N(c2ccc(F)cc2)[C@@H]1c1ccc([C@@H]2O[C@H](CO)[C@@H](O)[C@H](O)[C@H]2O)cc1)c1ccc(F)cc1 [Compound 34]
18 | 81 to 83 | O=C1[C@H](CC[C@H](O)c2ccc(F)cc2)[C@@H](c2ccc([C@@H]3O[C@H](CO)[C@@H](O)[C@H](O)[C@H]3O)cc2)N1c1ccc(F)cc1 [Compound 35]
19 | 79 to 81 | Cc1ccc(N2C(=O)[C@H](CC[C@H](O)c3ccc(F)cc3)[C@H]2c2ccc([C@@H]3O[C@H](CO)[C@@H](O)[C@H](O)[C@H]3O)cc2)cc1 [Compound 36]
20 | 110 to 112 | O=C1[C@H](CC[C@H](O)c2ccccc2)[C@@H](c2ccc(C[C@@H]3O[C@H](CO)[C@@H](O)[C@H](O)[C@H]3O)cc2)N1c1ccccc1 [Compound 41, 3-((3S)-3-Hydroxy-3-phenylpropyl)(4S,3R)-4-(4-{[(2S,5S,3R,4R,6R)-3,4,5-trihydroxy-6-(hydroxymethyl)perhydro-2H-pyran-2-yl]methyl}phenyl)-1-phenylazetidine-2-one]
21 | 56 to 58 | CCOC(=O)c1ccc(N2C(=O)[C@H](CC[C@H](O)c3ccc(F)cc3)[C@H]2c2ccc(C[C@@H]3O[C@H](CO)[C@@H](O)[C@H](O)[C@H]3O)cc2)cc1 [Compound 42, 4-[3-((3S)-3-(4-Fluorophenyl)-3-hydroxypropyl](4S,3R)-4-(4-{[(2S,5S,3R,4R,6R)-3,4,5-trihydroxy-6-(hydroxymethyl)perhydro-2H-pyran-2-yl]methyl}phenyl)-2-oxoazetidinyl]benzoic acid ethyl ester]
22 | 96 to 98 | Cc1ccc(N2C(=O)[C@H](CCOc3ccc(F)cc3)[C@H]2c2ccc(C[C@@H]3O[C@H](CO)[C@@H](O)[C@H](O)[C@H]3O)cc2)cc1 [Compound 43, 4-(4-{[(5S,2R,3R,4R,6R)-3,4,5-Trihydroxy-6-(hydroxymethyl)perhydro-2H-pyran-2-yl]methyl}phenyl)(4S,3R)-1-(4-methylphenyl)-3-[3-(4-fluorophenoxy)ethyl]azetidine-2-one]
23 | 84 to 86 | O=C1[C@H](CCCc2ccccc2)[C@@H](c2ccc(C[C@@H]3O[C@H](CO)[C@@H](O)[C@H](O)[C@H]3O)cc2)N1c1ccccc1 [Compound 44, 3-(3-Phenylpropyl)(4S,3R)-4-(4-{[(5S,3R,4R,6R)-3,4,5-trihydroxy-6-(hydroxymethyl)perhydro-2H-pyran-2-yl]methyl}phenyl)-1-phenylazetidine-2-one]
